Structures can show the parent of a compound that is named as a salt.
Columns and labels:
Type in all cases: biochemical
AKT1 = biological target: T1, AKT1 (Homo sapiens, UniProt P31749); experiment: AKT Kinase Assay (IMAP fluorescent polarisation) vs AKT1; details: activated AKT1, FAM Crosstide substrate
T1 construct: purchased SignalChem
Summary of the method: (§1)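 IC50 values came from non-linear regression of % inhibition relative to vehicle, measured by IMAP fluorescence polarisation (485/528 nm) after a 1 h room-temperature reaction of FAM-Crosstide and ATP. Each activated isoform was first exposed to compound for 45 min across fourteen half-log doses.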

AKT3 = biological target: T2, AKT3 (Homo sapiens, UniProt Q9Y243); experiment: AKT Kinase Assay (IMAP fluorescent polarisation) vs AKT3; details: activated AKT3, FAM Crosstide substrate
T2 construct: purchased SignalChem
T2 sequence (Q9Y243 whole entry): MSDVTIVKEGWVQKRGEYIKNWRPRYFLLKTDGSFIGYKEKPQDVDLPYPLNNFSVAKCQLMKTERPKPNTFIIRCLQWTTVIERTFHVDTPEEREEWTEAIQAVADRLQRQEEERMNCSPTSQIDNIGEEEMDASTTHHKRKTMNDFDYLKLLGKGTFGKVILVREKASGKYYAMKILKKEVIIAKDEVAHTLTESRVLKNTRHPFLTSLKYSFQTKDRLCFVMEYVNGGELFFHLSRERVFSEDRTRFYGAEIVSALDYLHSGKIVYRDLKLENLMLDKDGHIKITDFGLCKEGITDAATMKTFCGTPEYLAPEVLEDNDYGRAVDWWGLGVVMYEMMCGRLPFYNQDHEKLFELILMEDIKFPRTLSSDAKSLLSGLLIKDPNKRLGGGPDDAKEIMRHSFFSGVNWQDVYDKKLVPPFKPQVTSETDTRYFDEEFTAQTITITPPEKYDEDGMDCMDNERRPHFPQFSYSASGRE
Summary of the method: as §1

AKT2 = biological target: T3, AKT2 (Homo sapiens, UniProt P31751); experiment: AKT Kinase Assay (IMAP fluorescent polarisation) vs AKT2; details: activated AKT2, FAM Crosstide substrate
T3 construct: purchased SignalChem
T3 sequence (P31751 whole entry): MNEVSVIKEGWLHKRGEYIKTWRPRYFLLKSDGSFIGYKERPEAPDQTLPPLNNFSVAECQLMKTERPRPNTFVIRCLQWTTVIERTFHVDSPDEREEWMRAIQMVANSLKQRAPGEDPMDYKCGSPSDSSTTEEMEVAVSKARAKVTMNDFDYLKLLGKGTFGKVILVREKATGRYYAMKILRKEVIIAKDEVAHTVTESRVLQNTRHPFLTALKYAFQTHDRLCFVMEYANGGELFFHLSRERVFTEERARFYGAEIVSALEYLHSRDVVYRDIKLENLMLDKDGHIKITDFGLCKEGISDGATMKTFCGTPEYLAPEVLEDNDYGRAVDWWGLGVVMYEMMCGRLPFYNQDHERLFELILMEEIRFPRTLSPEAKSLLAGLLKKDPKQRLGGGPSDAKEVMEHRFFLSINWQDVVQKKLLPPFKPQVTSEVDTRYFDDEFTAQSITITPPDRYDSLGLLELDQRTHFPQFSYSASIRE
Summary of the method: as §1

T1 sequence (P31749 whole entry): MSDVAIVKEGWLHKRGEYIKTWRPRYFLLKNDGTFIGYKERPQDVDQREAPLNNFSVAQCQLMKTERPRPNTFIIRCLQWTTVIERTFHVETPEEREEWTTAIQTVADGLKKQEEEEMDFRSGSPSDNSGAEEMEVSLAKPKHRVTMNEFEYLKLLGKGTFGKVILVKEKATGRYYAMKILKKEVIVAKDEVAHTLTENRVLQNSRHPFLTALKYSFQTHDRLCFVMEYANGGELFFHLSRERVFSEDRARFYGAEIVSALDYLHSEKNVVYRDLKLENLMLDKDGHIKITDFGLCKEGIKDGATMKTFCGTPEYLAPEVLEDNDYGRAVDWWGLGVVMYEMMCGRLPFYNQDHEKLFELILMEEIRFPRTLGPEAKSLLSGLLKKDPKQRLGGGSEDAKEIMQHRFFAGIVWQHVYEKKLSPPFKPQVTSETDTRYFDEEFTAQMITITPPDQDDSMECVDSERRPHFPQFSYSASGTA

SMILES	IC50 (AKT1) [nM]	IC50 (AKT3) [nM]	IC50 (AKT2) [nM]
CC(C)n1cc2ccc3c(=O)c(-c4ccc(C5(N)CCC5)cc4)c(-c4ccccc4)oc3c2n1 [Example 84, 7-[4-(1-Amino-cyclobutyl)-phenyl]-2-isopropyl-8-phenyl-2H-9-oxa-1,2-diaza-cyclopenta[a]naphthalen-6-one hydrochloride]	≤ 1000	1000 to 10000	≤ 1000
NC1(c2ccc(-c3c(-c4ccccc4)oc4c(ccc5cnn(CCO)c54)c3=O)cc2)CCC1 [Example 85, 7-[4-(1-Amino-cyclobutyl)-phenyl]-1-(2-hydroxy-ethyl)-8-phenyl-1H-9-oxa-1,2-diaza-cyclopenta[a]naphthalen-6-one hydrochloride]	≤ 1000	1000 to 10000	≤ 1000
NC1(c2ccc(-c3c(-c4ccccc4)oc4c(ccc5cn(CCO)nc54)c3=O)cc2)CCC1 [Example 86, 7-[4-(1-Amino-cyclobutyl)-phenyl]-2-(2-hydroxy-ethyl)-8-phenyl-2H-9-oxa-1,2-diaza-cyclopenta[a]naphthalen-6-one hydrochloride]	≤ 1000	1000 to 10000	≤ 1000
NC1(c2ccc(-c3c(-c4ccccc4)oc4c(ccc5[nH]c(=O)[nH]c54)c3=O)cc2)CCC1 [Example 87, 7-[4-(1-Amino-cyclobutyl)-phenyl]-8-phenyl-1,3-dihydro-chromeno[7,8-d]imidazole-2,6-dione]	≤ 1000	> 10000	≤ 1000
NC1(c2ccc(-c3c(-c4ccccc4)oc4c(ccc5nn[nH]c54)c3=O)cc2)CCC1 [Example 88, 7-[4-(1-Amino-cyclobutyl)-phenyl]-8-phenyl-1H-9-oxa-1,2,3-triaza-cyclopenta[a]naphthalen-6-one]	≤ 1000	> 10000	≤ 1000
Cc1nc2ccc3c(=O)c(-c4ccc(C5(N)CCC5)cc4)c(-c4ccccc4)oc3c2[nH]1 [Example 89, 7-[4-(1-Amino-cyclobutyl)-phenyl]-2-methyl-8-phenyl-1H-chromeno[7,8-d]imidazol-6-one]	≤ 1000	1000 to 10000	≤ 1000
Cc1nc2ccc3c(=O)c(-c4ccc(C5(N)CCC5)cc4)c(-c4ccccc4)oc3c2n1C [Example 90, 7-[4-(1-Amino-cyclobutyl)-phenyl]-1,2-dimethyl-8-phenyl-1H-chromeno[7,8-d]imidazol-6-one]	≤ 1000	≤ 1000	≤ 1000
NC1(c2ccc(-c3c(-c4ccccc4)oc4c(ccc5[nH]c(=O)oc54)c3=O)cc2)CCC1 [Example 91, 7-[4-(1-Amino-cyclobutyl)-phenyl]-8-phenyl-3H-chromeno[7,8-d]oxazole-2,6-dione]	≤ 1000	> 10000	≤ 1000
NC1(c2ccc(-c3c(-c4ccccc4)oc4c5c(ccc4c3=O)NC(=O)CO5)cc2)CCC1 [Example 92, 7-[4-(1-Amino-cyclobutyl)-phenyl]-6-phenyl-1H-4,5-dioxa-1-aza-phenanthrene-2,8-dione]	≤ 1000	1000 to 10000	≤ 1000
Nc1ccc2c(=O)c(-c3ccc(C4(N)CCC4)cc3)c(-c3ccccc3)oc2c1O [Example 93, 7-Amino-3-[4-(1-amino-cyclobutyl)-phenyl]-8-hydroxy-2-phenyl-chromen-4-one]	≤ 1000	> 10000	1000 to 10000
NC1(c2ccc(-c3c(-c4ccccc4)oc4c(ccc5nc(C(F)(F)F)[nH]c54)c3=O)cc2)CCC1 [Example 94, 7-[4-(1-Amino-cyclobutyl)-phenyl]-8-Phenyl-2-trifluoromethyl-1H-chromeno[7,8-d]imidazol-6-one]	≤ 1000	> 10000	1000 to 10000
NC1(c2ccc(-c3c(-c4ccccc4)oc4c(ccc5nc(C(F)F)[nH]c54)c3=O)cc2)CCC1 [Example 95, 7-[4-(1-Amino-cyclobutyl)-phenyl]-2-difluoromethyl-8-phenyl-1H-chromeno[7,8-d]imidazol-6-one]	≤ 1000	1000 to 10000	≤ 1000
Cn1cnc2ccc3c(=O)c(-c4ccc(C5(N)CCC5)cc4)c(-c4ccccc4)oc3c21 [Example 96, 7-[4-(1-Amino-cyclobutyl)-phenyl]-1-methyl-8-phenyl-1H-chromeno[7,8-d]imidazol-6-one]	≤ 1000	≤ 1000	≤ 1000
NC1(c2ccc(-c3c(-c4ccccc4)oc4c(ccc5c(I)n[nH]c54)c3=O)cc2)CCC1 [Example 97, 7-[4-(1-Amino-cyclobutyl)-phenyl]-3-iodo-8-phenyl-1H-9-oxa-1,2-diaza-cyclopenta[a]naphthalen-6-one hydrochloride]	≤ 1000	> 10000	1000 to 10000
CCc1nn(C)c2c1ccc1c(=O)c(-c3ccc(C4(N)CCC4)cc3)c(-c3ccccc3)oc12 [Example 98, 7-[4-(1-Amino-cyclobutyl)-phenyl]-3-ethyl-1-methyl-8-phenyl-1H-9-oxa-1,2-diaza-cyclopenta[a]naphthalen-6-one hydrochloride]	≤ 1000	1000 to 10000	≤ 1000
NC1(c2ccc(-c3c(-c4ccccc4)oc4c(ccc5c(Cl)n[nH]c54)c3=O)cc2)CCC1 [Example 99, 7-[4-(1-Amino-cyclobutyl)-phenyl]-3-chloro-8-phenyl-1H-9-oxa-1,2-diaza-cyclopenta[a]naphthalen-6-one hydrochloride]	≤ 1000	1000 to 10000	1000 to 10000
Cn1nc(Cl)c2ccc3c(=O)c(-c4ccc(C5(N)CCC5)cc4)c(-c4ccccc4)oc3c21 [Example 100, 7-[4-(1-Amino-cyclobutyl)-phenyl]-3-chloro-1-methyl-8-phenyl-1H-9-oxa-1,2-diaza-cyclopenta[a]naphthalen-6-one hydrochloride]	≤ 1000	1000 to 10000	1000 to 10000
Cn1cc(-c2nccc3c(=O)c(-c4ccc(C5(N)CCC5)cc4)c(-c4ccccc4)oc23)cn1 [Example 101, 3-[4-(1-Amino-cyclobutyl)-phenyl]-8-(1-methyl-1H-pyrazol-4-yl)-2-phenyl-pyrano[2,3-c]pyridin-4-one hydrochloride]	≤ 1000	≤ 1000	≤ 1000
NC1(c2ccc(-c3c(-c4ccccc4)oc4c(-n5cnnc5)nccc4c3=O)cc2)CCC1 [Example 102, 3-[4-(1-Amino-cyclobutyl)-phenyl]-2-phenyl-8-[1,2,4]triazol-4-yl-pyrano[2,3-c]pyridin-4-one hydrochloride]	≤ 1000	> 10000	1000 to 10000
NC1(c2ccc(-c3c(-c4ccccc4)oc4c(Oc5ccccn5)nccc4c3=O)cc2)CCC1 [Example 103, 3-[1-(1-Amino-cyclobutyl)-phenyl]-2-phenyl-8-(pyridin-2-yloxy)-pyrano[2,3-c]pyridin-4-one hydrochloride]	≤ 1000	> 10000	1000 to 10000
NC1(c2ccc(-c3c(-c4ccccc4)oc4c(-n5ccccc5=O)nccc4c3=O)cc2)CCC1 [Example 104, 3-[4-(1-Amino-cyclobutyl)-phenyl]-8-(2-oxo-2H-pyridin-1-yl)-2-phenyl-pyrano[2,3-c]pyridin-4-one hydrochloride]	1000 to 10000	> 10000	> 10000
C#Cc1cccc2c(=O)c(-c3ccc(C4(N)CCC4)cc3)c(-c3ccccc3)oc12 [Example 105, 3-[4-(1-Amino-cyclobutyl)-phenyl]-8-ethynyl-2-phenyl-chromen-4-one]	≤ 1000	1000 to 10000	1000 to 10000

Source: patent publication US8546376B2, “Pharmaceutical compounds” (Almac Discovery Limited, priority 2009, dated 2013)
